Reference: patent US10189809B2, “SGC stimulators” (Ironwood Pharmaceuticals, Inc., priority 2010, dated 2019)
Like-named read-outs stand apart in the source and are kept apart here.

Legend:
[1] = molecular target: T1, soluble guanylate cyclase (sGC) (Homo sapiens (Human), UniProt Q02108+Q02153); experiment: sGC-HEK-cGMP assay run in the absence of SNP (HEK WC assay); type: cell-based; conditions: for HEK WC Assay (fold increase at 10 μM): compound at 10 μM; for HEK WC Assay (fold increase at 10 μM) / HEK WC Assay (fold increase at 30 μM): no SNP, increase in the sGC receptor activity; for HEK WC Assay (fold increase at 30 μM) / HEK WC Assay (fold increase at 30 μM in the absence of SNP): compound at 30 μM
T1 sequence (Q02153 whole entry): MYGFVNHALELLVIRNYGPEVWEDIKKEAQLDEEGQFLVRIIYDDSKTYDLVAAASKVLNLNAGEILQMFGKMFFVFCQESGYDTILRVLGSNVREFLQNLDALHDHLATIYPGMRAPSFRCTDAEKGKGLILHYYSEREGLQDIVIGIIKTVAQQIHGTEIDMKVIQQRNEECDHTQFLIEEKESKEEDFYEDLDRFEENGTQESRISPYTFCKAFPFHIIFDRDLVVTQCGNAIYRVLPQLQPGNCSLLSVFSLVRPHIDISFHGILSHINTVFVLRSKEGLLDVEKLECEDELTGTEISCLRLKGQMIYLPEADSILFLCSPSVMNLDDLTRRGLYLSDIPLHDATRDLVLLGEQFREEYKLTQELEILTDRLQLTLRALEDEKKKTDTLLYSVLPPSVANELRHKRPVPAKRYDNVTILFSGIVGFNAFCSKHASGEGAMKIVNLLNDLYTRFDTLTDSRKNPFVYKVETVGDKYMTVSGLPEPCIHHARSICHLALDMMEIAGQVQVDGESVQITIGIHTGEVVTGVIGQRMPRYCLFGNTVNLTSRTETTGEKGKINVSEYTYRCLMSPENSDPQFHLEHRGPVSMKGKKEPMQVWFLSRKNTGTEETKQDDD
T1 sequence (Q02108 whole entry): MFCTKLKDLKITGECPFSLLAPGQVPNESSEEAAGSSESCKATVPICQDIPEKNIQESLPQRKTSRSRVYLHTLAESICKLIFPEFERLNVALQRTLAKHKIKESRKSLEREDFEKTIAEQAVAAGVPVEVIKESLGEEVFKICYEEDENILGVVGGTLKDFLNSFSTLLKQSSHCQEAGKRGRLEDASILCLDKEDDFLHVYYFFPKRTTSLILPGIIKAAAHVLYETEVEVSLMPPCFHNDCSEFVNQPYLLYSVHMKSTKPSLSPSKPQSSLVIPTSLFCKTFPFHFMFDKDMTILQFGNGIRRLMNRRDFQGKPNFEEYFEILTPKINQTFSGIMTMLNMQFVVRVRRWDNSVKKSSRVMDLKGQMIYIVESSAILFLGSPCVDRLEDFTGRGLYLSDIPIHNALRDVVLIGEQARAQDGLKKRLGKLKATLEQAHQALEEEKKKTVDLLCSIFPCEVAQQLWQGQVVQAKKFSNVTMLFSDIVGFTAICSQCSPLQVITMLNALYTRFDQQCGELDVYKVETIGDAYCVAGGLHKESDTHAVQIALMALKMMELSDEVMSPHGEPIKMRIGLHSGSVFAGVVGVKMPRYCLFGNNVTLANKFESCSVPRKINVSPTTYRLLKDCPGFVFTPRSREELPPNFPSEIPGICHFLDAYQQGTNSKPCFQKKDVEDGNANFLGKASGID
How it was run: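 Intracellular cGMP was measured by LC/MS, using a standard curve, in HEK293 cells treated with compound for 10 min at 37° C after a 15 min 0.5 mM IBMX pretreatment, with no SNP present. Lysis and quench used 0.1 M HCl. EC50 values came from concentration-response fits.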

[2] = molecular target: T1, soluble guanylate cyclase (sGC); experiment: sGC-HEK-cGMP assay run with SNP incubation (HEK WC assay); type: cell-based; conditions: for Emax at 10 µM: read-out: HEK WC Assay (% Emax at 10 uM/with 10 uM SNP); for Emax at 30 µM: read-out: HEK WC Assay (% Emax at 30 uM/with 10 uM SNP); for HEK WC Assay (fold increase at 30 μM in the presence of 10 μM SNP): compound at 30 μM; for EC50: in the presence of 10 uM SNP
How it was run: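 EC50 values derive from concentration-response curves of intracellular cGMP in HEK293 cells, which express sGC endogenously. Compound and sodium nitroprusside were co-incubated 10 min at 37 °C after a 15-min 0.5 mM IBMX step, with 0.1 M HCl lysis and 1% DMSO vehicle.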

[3] = molecular target: Human soluble guanylate cyclase enzyme (hsGC) (Homo sapiens (Human), UniProt Q02108+Q02153); experiment: Purified human sGC enzyme activity assay; type: biochemical; conditions: for sGC Enzyme (specific activity at 10 μM) / sGC Enzyme (fold increase at 10 μM without SNP): 10 μM compound; for sGC Enzyme (specific activity at 30 μM) / sGC Enzyme (fold increase at 30 μM without SNP): 30 μM compound
Sequence of Human soluble guanylate cyclase enzyme (hsGC) (Q02153 whole entry): as the sequence (Q02153 whole entry) above
Sequence of Human soluble guanylate cyclase enzyme (hsGC) (Q02108 whole entry): as the sequence (Q02108 whole entry) above
How it was run: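 Values are fold-change of sGC specific activity, nmoles cGMP per mg enzyme per min, relative to DMSO controls. Reactions: 5 ng human enzyme, 300 μM GTP, 1 mM IBMX, 2 mM MgCl2/DTT, 0.1 M Tris pH 8.0, compound 10 or 30 μM final, 37° C for 30 minutes, methanol quench. cGMP read against a 0.078-10 μM final standard curve.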

Thoracic aortic rings = experiment: Alternative thoracic aortic rings assay (Example 19b; resting tension as 100% inhibition); parameters: species or system rat; conditions: Rattus norvegicus, Table 10B; for inhibition at 1 µM: read-out: Percent Relaxation at 1 μM; for inhibition at 3 µM: read-out: Percent Relaxation at 3 μM; for EC50: read-out: Aortic Ring EC50; for inhibition at 10 µM: read-out: Percent Relaxation at 10 μM
Protocol: Thoracic aortic rings were dissected from anesthetized (isoflurane) male Sprague-Dawley rats weighing 275-299 g. Tissues were immediately transferred to ice-cold Krebs-Henseleit solution, which had been aerated with 95% O2 and 5% CO2 for 30 minutes. Following removal of connective tissue, aortic sections were cut into 4 rings (˜2 mm each) and suspended on 2 L-shaped hooks, with one hook fixed at the bottom of the tissue bath (Schuler Organ Bath, Harvard Apparatus) and the other connected to a force transducer (F30 Force Transducer, Harvard Apparatus). Baths contained Krebs Henseleit solution (10 mL) heated to 37° C. and aerated with 95% O2 and 5% CO2. Rings were brought to an initial tension of 0.3-0.5 g and gradually raised to a resting tension of 1.0 g over 60 minutes. Rings were rinsed with Krebs Henseleit solution (heated to 37° C. and aerated with 95% O2 and 5% CO2) at 15 minute intervals until a stable baseline was obtained. Rings were considered to be stable after a resting tension of 1.0 g was maintained (for approximately 10 minutes) without need for adjustment. Rings were then contracted with 100 ng/mL phenylephrine by adding 100 uL of a 10 μg/mL phenylephrine stock solution. Tissues achieving a stable contraction were then treated in a cumulative, dose dependent manner with test compounds prepared in dimethylsulfoxide (DMSO). In some cases, tissues were rinsed three times over a 5 minute period with Krebs-Heinseleit's solution (heated to 37° C. and aerated with 95% O2 and 5% CO2), allowed to stabilize at baseline, and then used for characterization of other test articles or DMSO effects. All data were collected using the HSE-ACAD software provided by Harvard Apparatus. […] EC50 values were calculated from concentration-response curves generated with GraphPad Prism Software.

[4] = read-out: HEK WC Assay (% Emax at 10 μM with 10 uM SNP)
[5] = read-out: HEK WC Assay (% Emax at 30 μM with 10 uM SNP)

| Compound | HEK WC Assay (fold increase at 10 μM) [1] | HEK WC Assay (fold increase at 30 μM) [1] | Emax at 10 µM [2] [%] | Emax at 30 µM [2] [%] | sGC Enzyme (specific activity at 10 μM) [3] | sGC Enzyme (fold increase at 10 μM without SNP) [3] | sGC Enzyme (specific activity at 30 μM) [3] | sGC Enzyme (fold increase at 30 μM without SNP) [3] | HEK WC Assay (fold increase at 30 μM in the absence of SNP) [1] | HEK WC Assay (fold increase at 30 μM in the presence of 10 μM SNP) [2] | EC50 [2] [µM] | Emax [2, 4] [%] | Emax [2, 5] [%] | inhibition at 1 µM (Thoracic aortic rings) [%] | inhibition at 3 µM (Thoracic aortic rings) [%] | EC50 (Thoracic aortic rings) [µM] | inhibition at 10 µM (Thoracic aortic rings) [%] | Emax ([2]; read-out: HEK WC Assay (% Emax at 1 μM with 10 uM SNP)) [%] |
| --- | --- | --- | --- | --- | --- | --- | --- | --- | --- | --- | --- | --- | --- | --- | --- | --- | --- | --- |
| Fc1ccccc1Cn1nc(-c2ncccn2)cc1-c1cccnc1 [Compound I-10] | A (A = no increase to <1 fold increase) | A (A = no increase to <1 fold increase) | 0 to 10 | 0 to 10 | D (D = 200 to <500) | B (B = 2 to <5 fold increase) | D (D = 200 to <500) | B (B = 2 to <5 fold increase) |  |  |  |  |  |  |  |  |  |  |
| Fc1ccccc1Cn1nc(-c2ccccn2)cc1-c1ccncc1 [Compound I-11] | A (A = no increase to <1 fold increase) | A (A = no increase to <1 fold increase) | 0 to 10 | 0 to 10 |  | A (A = no increase to <2 fold increase) | C (C = 100 to <200) | A (A = no increase to <2 fold increase) |  |  |  |  |  |  |  |  |  |  |
| COc1cccc(-c2cc(-c3ncccn3)n(Cc3ccccc3F)n2)n1 [Compound I-15] | A (A = no increase to <1 fold increase) | A (A = no increase to <1 fold increase) | 0 to 10 | 0 to 10 | C (C = 100 to <200) | A (A = no increase to <2 fold increase) | C (C = 100 to <200) | A (A = no increase to <2 fold increase) |  |  |  |  |  |  |  |  |  |  |
| Fc1ccccc1Cn1nc(-c2ccccn2)cc1-c1ccncn1 [Compound I-21] | A (A = no increase to <1 fold increase) | A (A = no increase to <1 fold increase) | 0 to 10 | 10 to 20 | C (C = 100 to <200) | A (A = no increase to <2 fold increase) | C (C = 100 to <200) | A (A = no increase to <2 fold increase) |  |  |  |  |  |  |  |  |  |  |
| Fc1ccccc1Cn1nc(-c2ncccn2)cc1-c1cnc2ccoc2c1 [Compound I-32] | A (A = no increase to <1 fold increase) | A (A = no increase to <1 fold increase) | 0 to 10 | 0 to 10 | C (C = 100 to <200) | A (A = no increase to <2 fold increase) | D (D = 200 to <500) | A (A = no increase to <2 fold increase) |  |  |  |  |  |  |  |  |  |  |
| Fc1ccccc1Cn1nc(-c2ccccn2)cc1-c1cnccn1 [Compound I-34] | A (A = no increase to <1 fold increase) | A (A = no increase to <1 fold increase) | 0 to 10 | 0 to 10 | B (B = 50 to <100) | A (A = no increase to <2 fold increase) | C (C = 100 to <200) | A (A = no increase to <2 fold increase) |  |  |  |  |  |  |  |  |  |  |
| Nc1ccnc(-c2cc(-c3ccccn3)nn2Cc2ccccc2F)n1 [Compound I-41] | A (A = no increase to <1 fold increase) | A (A = no increase to <1 fold increase) | 0 to 10 | 0 to 10 | B (B = 50 to <100) | A (A = no increase to <2 fold increase) | C (C = 100 to <200) | B (B = 2 to <5 fold increase) |  |  |  |  |  |  |  |  |  |  |
| COC(=O)Nc1cnc(-c2cc(-c3ccon3)n(Cc3ccccc3F)n2)nc1N [Compound I-142] |  |  |  |  |  |  |  |  | E (E = 10 to <20 fold increase) | F (F = 20 to <30 fold increase) | < 20 | 100 to 120 | 100 to 120 | 80 to 100 | 100 to 120 | < 2 |  |  |
| Nc1nc(-c2cc(-c3ncco3)n(Cc3ccccc3F)n2)ncc1F [Compound I-147] |  |  |  |  |  |  |  |  | D (D = 5 to <10 fold increase) | E (E = 10 to <20 fold increase) | < 20 | 80 to 100 | 60 to 80 | 60 to 80 | 80 to 100 | < 2 | 80 to 100 |  |
| CC(C)(C)OC(=O)Nc1cnc(-c2cc(-c3ncco3)n(Cc3ccccc3F)n2)nc1N [Compound I-148] |  |  |  |  |  |  |  |  | D (D = 5 to <10 fold increase) | E (E = 10 to <20 fold increase) | < 20 | 100 to 120 | 100 to 120 | 80 to 100 | 80 to 100 | < 2 |  |  |
| CC(C)COC(=O)Nc1cnc(-c2cc(-c3ccon3)n(Cc3ccccc3F)n2)nc1N [Compound I-150] |  |  |  |  |  |  |  |  | E (E = 10 to <20 fold increase) | E (E = 10 to <20 fold increase) | < 20 | 80 to 100 | 80 to 100 | 40 to 60 | 80 to 100 | < 2 | 80 to 100 |  |
| CC(=O)Nc1cnc(-c2cc(-c3ncco3)n(Cc3ccccc3F)n2)nc1N [Compound I-151] |  |  |  |  |  |  |  |  | C (C = 2 to <5 fold increase) | D (D = 5 to <10 fold increase) | < 20 | 60 to 80 | 60 to 80 | 80 to 100 | 100 to 120 | < 2 | 100 to 120 |  |
| Nc1nc(-c2cc(-c3ccon3)n(Cc3ccccc3F)n2)ncc1NC(=O)OCCCl [Compound I-152] |  |  |  |  |  |  |  |  | E (E = 10 to <20 fold increase) | E (E = 10 to <20 fold increase) | < 20 | 60 to 80 | 40 to 60 | 60 to 80 | 80 to 100 | < 2 | 100 to 120 |  |
| Nc1nc(-c2cc(-c3ccon3)n(Cc3ccccc3F)n2)ncc1N1CCOC1=O [Compound I-153] |  |  |  |  |  |  |  |  | C (C = 2 to <5 fold increase) | D (D = 5 to <10 fold increase) | < 20 | 40 to 60 | 60 to 80 | 60 to 80 | 60 to 80 | < 2 | 80 to 100 |  |
| O=C(Nc1cnc(-c2cc(-c3ccon3)n(Cc3ccccc3F)n2)nc1O)c1ccccc1 [Compound I-158] |  |  |  |  |  |  |  |  | C (C = 2 to <5 fold increase) |  | 100 to 300 | 20 to 40 | 20 to 40 | 10 to 20 | 40 to 60 | 4 to 8 | 80 to 100 | 0 to 10 |
